Read-outs that look alike come from different tables or passages of the source.

Data set [1] deals with T1, human BCRP (Homo sapiens, UniProt Q9UNQ0).
T1 sequence (Q9UNQ0 1-655): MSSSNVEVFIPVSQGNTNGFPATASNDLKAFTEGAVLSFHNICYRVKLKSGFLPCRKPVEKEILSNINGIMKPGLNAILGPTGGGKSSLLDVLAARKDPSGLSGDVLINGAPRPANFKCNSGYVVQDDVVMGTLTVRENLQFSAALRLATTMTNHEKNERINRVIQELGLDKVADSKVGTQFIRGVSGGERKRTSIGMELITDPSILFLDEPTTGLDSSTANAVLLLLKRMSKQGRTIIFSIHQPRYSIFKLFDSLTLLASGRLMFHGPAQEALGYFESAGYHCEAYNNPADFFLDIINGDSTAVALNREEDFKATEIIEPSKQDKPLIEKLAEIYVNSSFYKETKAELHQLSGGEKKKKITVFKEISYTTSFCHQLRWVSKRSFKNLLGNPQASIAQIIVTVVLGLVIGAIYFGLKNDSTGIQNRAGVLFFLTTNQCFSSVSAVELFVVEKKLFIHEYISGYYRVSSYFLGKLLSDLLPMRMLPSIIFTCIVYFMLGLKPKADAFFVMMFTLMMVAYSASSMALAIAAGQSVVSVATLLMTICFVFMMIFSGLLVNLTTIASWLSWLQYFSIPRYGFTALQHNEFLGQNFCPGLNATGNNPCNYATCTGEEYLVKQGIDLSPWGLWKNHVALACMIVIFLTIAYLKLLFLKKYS

For data set [2], the system named is BCRP. The conditions noted are these: previous study; cited from earlier work.
The target of data set [3] is T2, BCRP (ABCG2) (Homo sapiens, UniProt Q9UNQ0).
T2 sequence (Q9UNQ0 1-655): T1 sequence (Q9UNQ0 1-655)
To be noted: 30 min.

Data set [4] has as its target T1, human BCRP. The data set can be described thus: BCRP vesicular transport assay.
For data set [5], the target named is T2, BCRP (ABCG2). Put plainly: 3H-oxypurinol accumulation assay in BCRP-overexpressing HEK293 cells. To be noted: excipients at concentrations similar to vesicle screen; 30 min.

Take `COc1ccc(CCC(=O)c2c(O)cc(O[C@@H]3O[C@H](CO)[C@@H](O)[C@H](O)[C@H]3O[C@@H]3O[C@@H](C)[C@H](O)[C@@H](O)[C@H]3O)cc2O)cc1O` [neohesperidin DC]: the “inhibition of BCRP-mediated 3H-CCK8 uptake in vesicles (in words)” value in data set [1] is “did not inhibit”. Moreover, in data set [2], the “inhibition of BCRP-mediated Lucifer yellow uptake in vesicle assays” value is “did inhibit”.
For `CCN(CC)c1ccc2c(-c3ccccc3C(=O)O)c3ccc(=[N+](CC)CC)cc-3oc2c1` [Rhodamine B], the “increase of BCRP-mediated 3H-oxypurinol accumulation in BCRP-overexpressing HEK293 cells” value (“increase” below) in data set [3] is recorded as “more than 50%”.
As to `CCN(Cc1cccc(S(=O)(=O)[O-])c1)c1ccc(C(=C2C=CC(=[N+](CC)Cc3cccc(S(=O)(=O)[O-])c3)C=C2)c2ccccc2S(=O)(=O)[O-])cc1.[Na+].[Na+]` [FD&C Blue No. 1], the “inhibition of BCRP-mediated Lucifer yellow uptake in vesicle assays” value in data set [2] was “did not inhibit”. In addition, in data set [4] (screening concentration, inhibitor = more than 50% inhibition), the “inhibition of BCRP-mediated 3H-CCK8 uptake in vesicles (in words)” value is “inhibited”.
With `O=C1OC(c2ccc(O)c(S(=O)(=O)O)c2)(c2ccc(O)c(S(=O)(=O)O)c2)c2c(Br)c(Br)c(Br)c(Br)c21` [bromosulfophthalein, reference compound], in data set [4] (5 mM ATP and 200 μM BSP, 37 °C, 5 min (ATP alone 1.88, AMP 0.58)), the “3H-CCK8 uptake in human BCRP membrane vesicles” value stood at 0.44 pmol/mg/min.
Regarding `CCCCC(CC)COC(=O)CC(C(=O)OCC(CC)CCCC)S(=O)(=O)O` (stereo not shown) [Docusate sodium], the “increase” value in data set [3] is 26.4%.
Regarding `COc1cc(/C=C/C(=O)CC(=O)/C=C/c2ccc(O)c(OC)c2)ccc1O` [curcumin, reference compound], in data set [3] (100 μM), the “(EV + I)/(EV – I), nonspecific effect on cell membranes” value worked out at 0.571 and the “normalized oxypurinol accumulation ((BCRP + I)/(BCRP – I))/((EV + I)/(EV – I))” value amounted to 3.7.
As for D&C Brown No. 1, in data set [5], the “increase” value worked out at 26.8%.

These data come from publication PMC8177814 (Molecular pharmaceutics, 2020).
